Assay results reported in US20070015279A1, “Methods of Selecting Pancreatic Endocrine Cells Using Protein Synthesis Inhibitors” (AmCyte Inc., priority 2005, published 2007).

Key:
HD522B P0 cells = assay: G418 sulfate treatment of HD522B P0 cells, cell death and confluence; format: cell-based, human; conditions: for Cell confluence (estimated): one week recovery
Description: (§1) HD522B P0 cells were cultured in M3 for 4 days; G418 sulfate in M3 at the following concentrations (μg/ml) was added to the culture: 0, 5, 25, 50, 100, 200, 500, and 1000. The cells were cultured in the presence of G418 sulfate for 48 h, switched to recovery medium (M3/ITS/LIF) for one week and harvested for quantitative RT-PCR analysis. The control group had to be harvested two days post recovery due to confluence. […] At lower dosages, cell death occurred between 1 and 3 days after switch to recovery medium. Cell proliferation could be observed during the recovery period in most of the conditions except in cultures containing 500 and 1000 μg/ml G418 sulfate. Cell confluence from each plate was estimated as following: 0 (100%), 5 (100%), 25 (95%), 50 (85%), 100 (50%), 200 (20%), 500 (less than 5%), 1000 (less than 2%). Approximately equal amount of cells from each plate were used for analysis based on the estimated confluences of each plate except the plates received 500 and 1000 μg/ml G418 sulfate treatment. The β-actin mRNA copy numbers have no significant variation in control group and cells received 5, 25, 50, and 100 μg/ml G418 whereas cells that received 200 to 1000 μg/ml G418 have much lower β-actin expression especially the 500 and 1000 μg/ml samples. This correlated well with the decreased cell confluence in these samples. The expression of endocrine gene markers increased as the concentration of G418 concentration increased to 100 μg/ml and decreased when G418 concentration is above 200 μg/ml. The expression of amylase, an exocrine marker, and nestin, a marker of mesenchymal cell, decreased as G418 concentration increased.

[1] = tested on: cultured adult human pancreatic cells; assay: G418 sulfate treatment of HD522B P0 cells, marker mRNA by quantitative RT-PCR; format: cell-based
Description: as §1

30S ribosomal subunit = conditions: cited from earlier work
cells = conditions: cited from earlier work

Substance: geneticin sulfate [G418 Sulfate]
- Cell confluence (estimated) (HD522B P0 cells; 5 μg/ml 48 h): 100%
- Cell confluence (estimated) (HD522B P0 cells; 25 μg/ml 48 h): 95%
- Cell confluence (estimated) (HD522B P0 cells; 50 μg/ml 48 h): 85%
- Cell confluence (estimated) (HD522B P0 cells; 100 μg/ml 48 h): 50%
- Cell confluence (estimated) (HD522B P0 cells; 200 μg/ml 48 h): 20%
- Cell confluence (estimated) (HD522B P0 cells; 500 μg/ml 48 h): less than 5%
- Cell confluence (estimated) (HD522B P0 cells; 1000 μg/ml 48 h): less than 2%
- time to observed cell death (HD522B P0 cells; 500 and 1000 μg/ml groups, from start of treatment): ≤ 24 h
- Amylase/β-actin ([1]; 5 μg/ml 48 h): 1.72E−03
- CK19/β-actin ([1]; 5 μg/ml 48 h): 7.51E−01
- Delta/β-actin ([1]; 5 μg/ml 48 h): 1.24E−04
- GCK/β-actin ([1]; 5 μg/ml 48 h): 2.20E−04
- GLUT2/β-actin ([1]; 5 μg/ml 48 h): 4.36E−05
- Gcg/β-actin ([1]; 5 μg/ml 48 h): 1.97E−02
- Insulin/β-actin ([1]; 5 μg/ml 48 h): 1.67E+00
- NCAM/β-actin ([1]; 5 μg/ml 48 h): 1.51E−01
- Nestin/β-actin ([1]; 5 μg/ml 48 h): 2.52E−03
- NeuroD/β-actin ([1]; 5 μg/ml 48 h): 1.26E−03
- Ngn3/β-actin ([1]; 5 μg/ml 48 h): 2.45E−07
- Nkx2.2/β-actin ([1]; 5 μg/ml 48 h): 7.84E−05
- Nkx6.1/β-actin ([1]; 5 μg/ml 48 h): 4.52E−04
- Notch1/β-actin ([1]; 5 μg/ml 48 h): 8.14E−05
- P48/β-actin ([1]; 5 μg/ml 48 h): 8.62E−03
- PDX/β-actin ([1]; 5 μg/ml 48 h): 7.02E−04
- Pax4/β-actin ([1]; 5 μg/ml 48 h): 9.82E−06
- SST/β-actin ([1]; 5 μg/ml 48 h): 5.88E−02
- Amylase/β-actin ([1]; 25 μg/ml 48 h): 6.09E−04
- CK19/β-actin ([1]; 25 μg/ml 48 h): 1.06E+00
- Delta/β-actin ([1]; 25 μg/ml 48 h): 1.08E−04
- GCK/β-actin ([1]; 25 μg/ml 48 h): 2.51E−04
- GLUT2/β-actin ([1]; 25 μg/ml 48 h): 1.10E−04
- Gcg/β-actin ([1]; 25 μg/ml 48 h): 4.56E−02
- Insulin/β-actin ([1]; 25 μg/ml 48 h): 3.40E+00
- NCAM/β-actin ([1]; 25 μg/ml 48 h): 2.23E−01
- Nestin/β-actin ([1]; 25 μg/ml 48 h): 1.24E−03
- NeuroD/β-actin ([1]; 25 μg/ml 48 h): 1.79E−03
- Ngn3/β-actin ([1]; 25 μg/ml 48 h): 9.19E−07
- Nkx2.2/β-actin ([1]; 25 μg/ml 48 h): 2.35E−04
- Nkx6.1/β-actin ([1]; 25 μg/ml 48 h): 6.45E−04
- Notch1/β-actin ([1]; 25 μg/ml 48 h): 3.02E−04
- P48/β-actin ([1]; 25 μg/ml 48 h): 1.12E−02
- PDX/β-actin ([1]; 25 μg/ml 48 h): 1.11E−03
- Pax4/β-actin ([1]; 25 μg/ml 48 h): 1.24E−05
- SST/β-actin ([1]; 25 μg/ml 48 h): 1.03E−01
- Amylase/β-actin ([1]; 50 μg/ml 48 h): 4.50E−04
- CK19/β-actin ([1]; 50 μg/ml 48 h): 1.02E+00
- Delta/β-actin ([1]; 50 μg/ml 48 h): 7.70E−05
- GCK/β-actin ([1]; 50 μg/ml 48 h): 3.01E−04
- GLUT2/β-actin ([1]; 50 μg/ml 48 h): 2.17E−04
- Gcg/β-actin ([1]; 50 μg/ml 48 h): 9.04E−02
- Insulin/β-actin ([1]; 50 μg/ml 48 h): 5.51E+00
- NCAM/β-actin ([1]; 50 μg/ml 48 h): 1.51E−01
- Nestin/β-actin ([1]; 50 μg/ml 48 h): 5.42E−04
- NeuroD/β-actin ([1]; 50 μg/ml 48 h): 3.10E−03
- Ngn3/β-actin ([1]; 50 μg/ml 48 h): 2.13E−06
- Nkx2.2/β-actin ([1]; 50 μg/ml 48 h): 4.03E−04
- Nkx6.1/β-actin ([1]; 50 μg/ml 48 h): 6.82E−04
- Notch1/β-actin ([1]; 50 μg/ml 48 h): 4.91E−04
- P48/β-actin ([1]; 50 μg/ml 48 h): 9.21E−03
- PDX/β-actin ([1]; 50 μg/ml 48 h): 1.28E−03
- Pax4/β-actin ([1]; 50 μg/ml 48 h): 2.63E−05
- SST/β-actin ([1]; 50 μg/ml 48 h): 1.84E−01
- Amylase/β-actin ([1]; 100 μg/ml 48 h): 5.09E−04
- CK19/β-actin ([1]; 100 μg/ml 48 h): 9.98E−01
- Delta/β-actin ([1]; 100 μg/ml 48 h): 1.16E−04
- GCK/β-actin ([1]; 100 μg/ml 48 h): 8.81E−04
- GLUT2/β-actin ([1]; 100 μg/ml 48 h): 4.53E−04
- Gcg/β-actin ([1]; 100 μg/ml 48 h): 1.85E−01
- Insulin/β-actin ([1]; 100 μg/ml 48 h): 1.06E+01
- NCAM/β-actin ([1]; 100 μg/ml 48 h): 9.73E−02
- Nestin/β-actin ([1]; 100 μg/ml 48 h): 3.48E−04
- NeuroD/β-actin ([1]; 100 μg/ml 48 h): 6.94E−03
- Ngn3/β-actin ([1]; 100 μg/ml 48 h): 2.71E−06
- Nkx2.2/β-actin ([1]; 100 μg/ml 48 h): 8.70E−04
- Nkx6.1/β-actin ([1]; 100 μg/ml 48 h): 9.19E−04
- Notch1/β-actin ([1]; 100 μg/ml 48 h): 5.39E−04
- P48/β-actin ([1]; 100 μg/ml 48 h): 7.93E−03
- PDX/β-actin ([1]; 100 μg/ml 48 h): 1.72E−03
- Pax4/β-actin ([1]; 100 μg/ml 48 h): 5.31E−05
- SST/β-actin ([1]; 100 μg/ml 48 h): 4.63E−01
- Amylase/β-actin ([1]; 200 μg/ml 48 h): 1.29E−03
- CK19/β-actin ([1]; 200 μg/ml 48 h): 4.09E−01
- Delta/β-actin ([1]; 200 μg/ml 48 h): 2.67E−04
- GCK/β-actin ([1]; 200 μg/ml 48 h): 2.74E−03
- GLUT2/β-actin ([1]; 200 μg/ml 48 h): 1.33E−03
- Gcg/β-actin ([1]; 200 μg/ml 48 h): 5.44E−01
- Insulin/β-actin ([1]; 200 μg/ml 48 h): 1.56E+01
- NCAM/β-actin ([1]; 200 μg/ml 48 h): 6.17E−02
- Nestin/β-actin ([1]; 200 μg/ml 48 h): 1.81E−03
- NeuroD/β-actin ([1]; 200 μg/ml 48 h): 1.76E−02
- Ngn3/β-actin ([1]; 200 μg/ml 48 h): 2.37E−06
- Nkx2.2/β-actin ([1]; 200 μg/ml 48 h): 3.31E−03
- Nkx6.1/β-actin ([1]; 200 μg/ml 48 h): 1.99E−03
- Notch1/β-actin ([1]; 200 μg/ml 48 h): 1.60E−03
- P48/β-actin ([1]; 200 μg/ml 48 h): 1.04E−02
- PDX/β-actin ([1]; 200 μg/ml 48 h): 6.90E−03
- Pax4/β-actin ([1]; 200 μg/ml 48 h): 2.32E−04
- SST/β-actin ([1]; 200 μg/ml 48 h): 1.37E+00
- Amylase/β-actin ([1]; 500 μg/ml 48 h): 7.63E−03
- CK19/β-actin ([1]; 500 μg/ml 48 h): 1.03E−01
- Delta/β-actin ([1]; 500 μg/ml 48 h): 1.27E−03
- GCK/β-actin ([1]; 500 μg/ml 48 h): 1.85E−02
- GLUT2/β-actin ([1]; 500 μg/ml 48 h): 1.09E−02
- Gcg/β-actin ([1]; 500 μg/ml 48 h): 3.80E+00
- Insulin/β-actin ([1]; 500 μg/ml 48 h): 8.21E+01
- NCAM/β-actin ([1]; 500 μg/ml 48 h): 5.51E−02
- Nestin/β-actin ([1]; 500 μg/ml 48 h): 3.37E−03
- NeuroD/β-actin ([1]; 500 μg/ml 48 h): 1.42E−01
- Ngn3/β-actin ([1]; 500 μg/ml 48 h): 0.00E+00
- Nkx2.2/β-actin ([1]; 500 μg/ml 48 h): 2.84E−02
- Nkx6.1/β-actin ([1]; 500 μg/ml 48 h): 1.28E−02
- Notch1/β-actin ([1]; 500 μg/ml 48 h): 1.93E−03
- P48/β-actin ([1]; 500 μg/ml 48 h): 2.43E−02
- PDX/β-actin ([1]; 500 μg/ml 48 h): 5.35E−02
- Pax4/β-actin ([1]; 500 μg/ml 48 h): 1.50E−03
- SST/β-actin ([1]; 500 μg/ml 48 h): 8.06E+00
- Amylase/β-actin ([1]; 1000 μg/ml 48 h): 1.24E−02
- CK19/β-actin ([1]; 1000 μg/ml 48 h): 1.44E−02
- Delta/β-actin ([1]; 1000 μg/ml 48 h): 4.18E−03
- GCK/β-actin ([1]; 1000 μg/ml 48 h): 2.39E−02
- GLUT2/β-actin ([1]; 1000 μg/ml 48 h): 1.29E−02
- Gcg/β-actin ([1]; 1000 μg/ml 48 h): 4.98E+00
- Insulin/β-actin ([1]; 1000 μg/ml 48 h): 2.02E+02
- NCAM/β-actin ([1]; 1000 μg/ml 48 h): 3.31E−02
- Nestin/β-actin ([1]; 1000 μg/ml 48 h): 0.00E+00
- NeuroD/β-actin ([1]; 1000 μg/ml 48 h): 1.72E−01
- Ngn3/β-actin ([1]; 1000 μg/ml 48 h): 0.00E+00
- Nkx2.2/β-actin ([1]; 1000 μg/ml 48 h): 6.69E−02
- Nkx6.1/β-actin ([1]; 1000 μg/ml 48 h): 1.37E−02
- Notch1/β-actin ([1]; 1000 μg/ml 48 h): 3.99E−03
- P48/β-actin ([1]; 1000 μg/ml 48 h): 5.95E−02
- PDX/β-actin ([1]; 1000 μg/ml 48 h): 4.87E−02
- Pax4/β-actin ([1]; 1000 μg/ml 48 h): 7.64E−04
- SST/β-actin ([1]; 1000 μg/ml 48 h): 2.43E+01

Substance: neomycin
- reduction of the rate of 30S formation compared with control cells (30S ribosomal subunit; 3 μg/mL): about 80%
- IC50 for 30S particle formation (30S ribosomal subunit): equal to the IC50 for inhibition of translation
- IC50, viable cell number (cells): 2 mg/L
